Experimental findings from patent US20250195498A1, “INHIBITOR OF CELLULAR PURINE NUCLEOTIDE SALVAGE PATHWAY ENZYME FOR USE IN THE TREATMENT AND/OR PREVENTION OF HELICOBACTER PYLORI INFECTION AND/OR DISEASE ASSOCIATED WITH SUCH INFECTION AND PHARMACEUTICAL COMPOSITION COMPRISING THE SAME” (UNIWERSYTET WARSZAWSKI, priority 2022, published 2025) are described below.

The target of this experiment is T1, AdSS from H. pylori strain 26695 (Helicobacter pylori, UniProt P56137).
T1 construct: made in house; host or cells: E. coli BL21 (DE3)
T1 sequence (P56137 1-411): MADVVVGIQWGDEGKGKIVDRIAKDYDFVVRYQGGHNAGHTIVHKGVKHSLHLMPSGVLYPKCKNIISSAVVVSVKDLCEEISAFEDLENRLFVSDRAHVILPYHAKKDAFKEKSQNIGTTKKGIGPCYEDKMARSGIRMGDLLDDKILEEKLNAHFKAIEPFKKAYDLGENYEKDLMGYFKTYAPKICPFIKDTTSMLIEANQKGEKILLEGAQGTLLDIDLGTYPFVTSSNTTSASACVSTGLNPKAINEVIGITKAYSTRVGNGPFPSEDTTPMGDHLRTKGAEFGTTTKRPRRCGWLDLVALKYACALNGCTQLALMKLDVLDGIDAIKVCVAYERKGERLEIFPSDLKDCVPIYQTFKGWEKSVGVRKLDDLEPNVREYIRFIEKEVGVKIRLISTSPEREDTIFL
The experiment can be described thus: AdSS enzyme activity assay (adenylosuccinate formation, 280 nm). The format is biochemical. To be noted: for AdSS activity after incubation: 1.23 U/mg in the absence of PLP. The procedure:
Enzymatic activity measurements were carried out in the similar manner as described in Bubić et al. (2018), at 25° C., in cuvettes with an optical path length of 1 cm containing 1 ml of reaction mixture consisting of 20 mM Hepes/NaOH buffer pH 7.7, 1 mM MgSO4 and the substrates, GTP, IMP and Asp. Saturating concentrations of substrates, namely GTP: 0.06 mM, IMP: 0.15 mM and Asp: 5 mM, were used to measure specific activity. The extinction coefficient at 280 nm of 1.17×10^4 M^−1 cm^−1 (adenylosuccinate formation) was used to calculate the concentration of the product formed (Rudolph and Fromm 1969). One unit (U) of AdSS specific activity is defined as μmol of adenylosuccinate produced per minute at 25° C. Specific activity is expressed as units of enzymatic activity per mg of protein (U/mg).
Inhibition of AdSS by PLP was examined first at saturation with all enzyme substrates and with increasing concentrations of the PLP inhibitor.
To determine the extent to which PLP-induced inactivation develops over time, the enzyme at low concentration (0.022 μM) was incubated at 25° C. in Hepes/NaOH buffer pH 7.0, in the presence of 1.11 mM MgSO4, 5.55 mM Asp, 167 μM IMP and PLP at various concentrations (ranging between 0.03 μM and 8.1 μM). The mixture contained all components necessary for the reaction with the exception of GTP, which, according to Dong and Fromm (1990), competes with PLP. Aliquots of 900 μl were taken from the incubated mixture at specified time intervals, placed in a cuvette and 100 μl of 0.6 mM GTP solution was added to initiate the reaction. The enzyme activity was determined and analysed in the known manner as described above.
Exponential decays were fitted to the data obtained for each concentration and the reaction rate constant of the inactivation process, k, and the residual enzymatic activity observed when the system reached equilibrium, A∞, were obtained as fitting parameters. From these parameters, the half-life of the inactivation process activity, t1/2, was calculated. The dependence of these three parameters on PLP concentration is shown in the lower panel of FIG. 12.
The inhibition of AdSS from H. pylori by pyridoxal (PI-h) was studied at saturation with all enzyme substrates and with increasing concentrations of the inhibitor, similar to that for PLP in Example 10a).

[1] abbreviates: 8.1 μM PLP, about 10 minutes of incubation without GTP.

Regarding `Cc1ncc(CO)c(C=O)c1O.Cl` [PI-h, pyridoxal hydrochloride], the “effect on AdSS activity” value (400 μM (maximum used), saturating substrates) is on record as “no effect on AdSS activity”.

Broadly, the IC50 is the concentration that inhibits the measured activity by half. `Cc1ncc(COP(=O)(O)O)c(C=O)c1O` [PLP, pyridoxal 5′-phosphate] registered a concentration for half-maximal inhibition (IC50) of 13.3 µM. For the same compound, the “AdSS activity after incubation” value (0.03 μM PLP, about 4 hours of incubation without GTP) came out at 0.48 U/mg. Also, the “inactivation of AdSS” value (0.03 μM PLP, enzyme 0.022 μM incubated without GTP, 25° C.) is “more than 50%”. Also, the “inactivation of the enzyme” value (1 μM PLP, incubation without GTP) is reported as 90%. In addition, under setting [1], the “decrease in AdSS activity” value is “about 97%” and the “AdSS activity after incubation” value is listed as 0.04 U/mg. The “decrease of enzyme activity” value (PLP above about 100 μM, saturating substrates, 25° C., pH 7.7) was 86%.
